Patent US20240325390A1 (Aerovate Therapeutics, Inc., priority 2020, published 2024)
Counter-ions that a name gives are not always drawn. Like-named read-outs stand apart in the source and are kept apart here. Each block holds one compound with its values, some of them ahead of it.

Columns and labels:
clinical [1] = details: human, in vivo
clinical [2] = details: human, plasma; for AUC / AUC(0-t) / Cmax: inhaled or intranasal; for Cmax / concentration at 7 day: imatinib in plasma, mean; for concentration at 7 day: inhaled
[3] = imatinib in plasma, MAD Day 7, mean

AUC(0-t) (clinical [1]; po, 400 mg): 32700 ng·h/mL
Cmax (clinical [1]; po, 400 mg): 1710 ng/mL
Compound: Cc1ccc(NC(=O)c2ccc(CN3CCN(C)CC3)cc2)cc1Nc1nccc(-c2cccnc2)n1 [Imatinib, imatinib mesylate, reference compound]

AUC (clinical [2]; 10 mg): 590 ng·h/mL
AUC(0-t) (clinical [2]; 10 mg): 182 ng·h/mL
Cmax (clinical [2]; 10 mg, MAD Day 1, inhaled 10 mg AV-101): 24.1 ng/mL
Cmax (clinical [2]; 10 mg, ss, MAD Day 7, inhaled 10 mg AV-101 BID): 69.2 ng/mL
AUC (clinical [2]; 30 mg): 1920 ng·h/mL
AUC(0-t) (clinical [2]; 30 mg): 673 ng·h/mL
Cmax (clinical [2]; 30 mg, MAD Day 1, inhaled 30 mg AV-101): 88.7 ng/mL
Cmax (clinical [2]; 30 mg, ss, MAD Day 7, inhaled 30 mg AV-101 BID): 215 ng/mL
AUC (clinical [2]; 90 mg): 7970 ng·h/mL
AUC(0-t) (clinical [2]; 90 mg): 2210 ng·h/mL
Cmax (clinical [2]; 90 mg, MAD Day 1, inhaled 90 mg AV-101): 262 ng/mL
Cmax (clinical [2]; 90 mg, ss, MAD Day 7, inhaled 90 mg AV-101 BID): 890 ng/mL
concentration at 7 day (clinical [2]; 10 mg, Cav, MAD Day 7, inhaled 10 mg AV-101 BID): 49.1 ng/mL
concentration at 7 day (clinical [2]; 10 mg, Cmin, ss, MAD Day 7, inhaled 10 mg AV-101 BID): 31.7 ng/mL
concentration at 7 day (clinical [2]; 30 mg, Cav, MAD Day 7, inhaled 30 mg AV-101 BID): 160 ng/mL
concentration at 7 day (clinical [2]; 30 mg, Cmin, ss, MAD Day 7, inhaled 30 mg AV-101 BID): 118 ng/mL
concentration at 7 day (clinical [2]; 90 mg, Cav, MAD Day 7, inhaled 90 mg AV-101 BID): 664 ng/mL
concentration at 7 day (clinical [2]; 90 mg, Cmin, ss, MAD Day 7, inhaled 90 mg AV-101 BID): 534 ng/mL
Fluctuation ([3]; inhaled 10 mg AV-101 BID): 78.28%
Fluctuation ([3]; inhaled 30 mg AV-101 BID): 70.30%
Fluctuation ([3]; inhaled 90 mg AV-101 BID): 67.18%
AUC(0-t) (clinical [1]; inhaled or intranasal, 1 mg): 9.9 ng·h/mL
Cmax (clinical [1]; inhaled or intranasal, 1 mg): 1.16 ng/mL
Tmax (clinical [1]; inhaled or intranasal, 1 mg): 3 h
AUC(0-t) (clinical [1]; inhaled or intranasal, 3 mg): 65.4 ng·h/mL
Cmax (clinical [1]; inhaled or intranasal, 3 mg): 3.81 ng/mL
AUC(0-t) (clinical [1]; inhaled or intranasal, 10 mg): 319 ng·h/mL
Cmax (clinical [1]; inhaled or intranasal, 10 mg): 20.2 ng/mL
Tmax (clinical [1]; inhaled or intranasal, 10 mg): 0.18 h
AUC(0-t) (clinical [1]; inhaled or intranasal, 30 mg): 1280 ng·h/mL
Cmax (clinical [1]; inhaled or intranasal, 30 mg): 73.8 ng/mL
AUC(0-t) (clinical [1]; inhaled or intranasal, 90 mg): 6670 ng·h/mL
Cmax (clinical [1]; inhaled or intranasal, 90 mg): 424 ng/mL
Compound: Cc1ccc(NC(=O)c2ccc(CN3CCN(C)CC3)cc2)cc1Nc1nccc(-c2cccnc2)n1 [AV-101, imatinib]
